Laboratory results as given in patent EP0218359A1, “Conditioning natural gas streams with preferential physical solvents” (EL PASO HYDROCARBONS COMPANY, priority 1985, dated 1987).

How the values were obtained:
Type in all cases: physicochemical
[1] = relative volatility of methane over ethane in the presence of the solvent
From the text: (§1) The preferential factor for physical solvent selection for the Mehra Process is defined as a product of relative volatility of methane over ethane multiplied by the solubility of ethane in physical solvents, specified as normal cubic meters of ethane per cubic meter of solvent.

[2] = solubility of hydrocarbons in the solvent (hydrocarbon loading capacity); conditions: normal cubic meters of gaseous hydrocarbons per cubic meter of the solvent
From the text: as §1

[3] = preferential factor (relative volatility of methane over ethane multiplied by solubility of ethane in solvent); conditions: relative volatility of methane over ethane x solubility of ethane in solvent
From the text: The preferential physical solvents are defined for the purposes of this invention as having a minimum relative volatility of methane over ethane of at least 5.0 (thereby defining its improved selectivity toward ethane over methane) and in addition a solubility of at least 1.77 normal cubic meters of gaseous hydrocarbons per cubic meter of the solvent (Nm^3/m^3) (thereby defining its hydrocarbon loading capacity), or, alternatively, a preferential factor of at least 8.85. The preferential factor for physical solvent selection for the Mehra Process is defined as a product of relative volatility of methane over ethane multiplied by the solubility of ethane in physical solvents, specified as normal cubic meters of ethane per cubic meter of solvent. […] This combination of minimum relative volatility and minimum solubility enables solvent flow rate variations and operating pressure and temperature variations to be selectively 'utilized in the Mehra Process for flexibly producing liquid products having selected hydrocarbon compositions.
Relative Volatilities of Ethane/Methane, Solubilities of Ethane in Solvent, and combined Preferential Factors are given in the following Table II for NMP, DMF, a common lean oil, the minimum solvent having desired requirements for Mehra Process applications, DMPEG, mesitylene, and the ideal solvent in the Mehra Process. […]

Molecule | relative volatility for methane with respect to ethane [1] | solubility of hydrocarbons [2] | preferential factor [3]
CN1CCCC1=O [NMP, N-methyl pyrrolidone] | 5.3 | 0.2 Nm^3/m^3 | 1.1
dimethyl ether of polyethylene glycol [DMPEG] | 6.4 | 7.0 Nm^3/m^3 | 45
